{
  "source": "paper PMC10054240",
  "about": "“New Inhibitors of Respiratory Syncytial Virus (RSV) Replication Based on Monoterpene-Substituted Arylcoumarins” (Molecules, 2023)",
  "key": {"[1]": {"test": "Cytotoxicity on non-infected HEp-2 cells, MTT assay", "assay_type": "cell-based", "settings": "human, non-infected HEp-2 cells, CC50 (50% cytotoxic concentration), MTT, 24 h"}, "RSV A strain A2": {"tested_on": "RSV A strain A2", "test": "Antiviral activity against RSV A strain A2 in HEp-2 cells (ELISA virus titer)", "assay_type": "cell-based, respiratory syncytial virus"}, "RSV type B": {"tested_on": "RSV type B", "test": "Inhibition of reproduction of RSV type B", "assay_type": "cell-based", "settings": "human respiratory syncytial virus", "experimental": "The antiviral activity against the respiratory syncytial virus was assessed in a series of 3-fold dilutions of test compounds, starting from ½CC50, which were added to HEp-2 cell culture, at a double concentration, 100 μL per well, followed by addition of 100 μL of the virus in a series of 10-fold dilutions. Cells were incubated at 37 °C and 5% CO2 for 1 h. Then, the virus was washed out, and the compounds were again added at a single concentration and incubated at 37 °C and 5% CO2 for 6 days. For the enzyme-linked immunosorbent assay (ELISA), cell culture was fixed with cold 80% acetone at −20 °C for 15 min, and then washed with phosphate buffered saline containing 0.05% Tween 20. Next, a solution of primary mouse anti-RSV F protein antibodies was added to the culture and incubated at room temperature under continuous stirring for 2 h. Then, cells were again washed with buffer, secondary anti-mouse antibodies were added, and the cells were incubated under continuous stirring for 2 h. […] After 5 min, the reaction was stopped with 0.1 M sulfuric acid, and optical density of the solution was measured at a wavelength of 450 nm. Wells with absorbance values two fold or greater than the cell control were considered to be […]. The virus titer was calculated using the Reed and Muench method. […]"}, "RSV A2 virus": {"tested_on": "RSV A2 virus", "test": "Time-of-addition assay", "assay_type": "cell-based, respiratory syncytial virus", "settings": "300 μg/mL, RSV A2, titer by ELISA", "experimental": "Compounds 14e and 14b at a concentration of 300 μg/mL were added at different time intervals before, after, or during virus inoculation (Figure 2 and Figure 3). The time of compound addition was counted off from Point 0, i.e., the moment of virus entry into the cell. RSV A2 virus was added to cells at a time conventionally designated as […]; then, cells were kept at a temperature of 40 °C for 1 h. Next, at Point 0, unbound virus was washed off, fresh medium containing compounds at the same concentration was added, and the cells were transferred to a thermostat at 37 °C where they were incubated for 25 h. After this, medium collected from each well was used to make a series of ten-fold dilutions with fresh cell culture. The cells were incubated for 6 days. The viral titer was measured by ELISA.\nCompounds were added at different time points before, after, or simultaneously with the introduction of the virus. The time of addition of the compounds was counted from Point 0, i.e., the time of entry of the virus into the cell. During the period (−1)–0, the cells together with the virus were incubated at 40 °C. All other experiments were carried out at 37 °C. RSV virus A […] was added to the cells at a time that was conventionally designated as […], after which the cells were kept for an hour at a temperature of 40 °C. Then, at Point 0, the virus was unbound. […]"}},
  "data": [
    {"smiles": "CC1(C)[C@H]2CC=C(CCCOc3ccc4c(-c5ccccc5)cc(=O)oc4c3)[C@@H]1C2", "note": "[Compound 14e, 7-(3-((1R,5S)-6,6-Dimethylbicyclo[3.1.1]hept-2-en-2-yl)propoxy)-4-phenyl-2H-chromen-2-one]", "values": [
      {"measurement": "CC50 at 24 h", "setting": "[1]", "result": "1440 ± 85.1", "unit": "µM"},
      {"measurement": "antiviral activity against RSV A (in words)", "setting": "RSV A strain A2; RSV A, HEp-2 cells", "result": "inhibiting virus replication at low micromolar concentrations"},
      {"measurement": "IC50", "setting": "RSV A strain A2; human respiratory syncytial virus, HEp-2, RSV A, from Table 1 values, read-out: pIC50 (-lg[IC50]) (converted)", "result": 7.59, "unit": "µM"},
      {"measurement": "EC50", "setting": "RSV A strain A2; human respiratory syncytial virus, HEp-2, read-out: EC50 (50% effective concentration)", "result": "7.5 ± 0.4", "unit": "µM"},
      {"measurement": "EC50", "setting": "RSV type B", "result": "3 ± 0.2", "unit": "µM"},
      {"measurement": "effect on viral titer depending on time of addition (in words)", "setting": "RSV A2 virus", "result": "reduced the viral titer upon addition at all time periods through 6 h after infection"}
    ]}
  ]
}
